Patent US20150342933A1, “APORPHINE ALKALOID DERIVATIVE FOR […]-DEPENDENT PROTEIN KINASE” (ZIH YUAN TANG Biotechnology Co., Ltd, priority 2014, published 2015)

System: AMPK
Test: AMPK phosphorylation in C2C12 myocytes (Western blot, Phospho-AMPKα Thr172)
Assay type: cell-based, mouse
Procedure: C2C12 skeletal myoblast cell line was purchased from the Food Industry Research and Development Institute (Hsinchu, Taiwan). The C2C12 cell line was a cell line obtained from culturing the leg skeletal muscle of adult C3H mice in a cell incubator under 95% […], 5% CO2, and 37° C. The cells were cultured in a DMEM medium (Gibco/Invitrogen, Carlsbad, Calif.) containing 4.5 mg/mL glucose, 10% fetal bovine serum (FBS; Gibco/Invitrogen, Carlsbad, Calif.), and an antibiotic solution (with final concentrations of penicillin=100 IU/mL and streptomycin=100 μg/mL). When the C2C12 myoblast cells have proliferated to cover seven-tenths of the area in the petri dish, the fetal bovine serum was replaced by 2% horse serum (Gibco/Invitrogen, Carlsbad, Calif.) so as to induce the C2C12 myoblast cells to become the multi-nuclei myocytes. The C2C12 myoblast cells differentiated into myocytes in 4 days, and the culture medium of the cells was replaced with no-serum DMEM 24 hours before the experiments so as to reduce metabolism of the cells.
The C2C12 myocytes were treated respectively with 1 μM, 3 μM and 10 μM 1,10-dihydroxyaporphine hydrobromide for 5 and 15 minutes. Then the C2C12 myocytes were rinsed with PBS buffer solution, and RIPA buffer solution containing protease inhibitors (20 mM Tris-HCl (pH 7.4), 100 mM NaCl, 1 mM EDTA, 1 mM EGTA, 0.1% SDS, 0.5% sodium deoxycholate, 1% NP-40, and 100× protease inhibitor cocktail) was added into the cells. The cells were collected and centrifuged on ice. Then, the concentrations of the supernatant samples were adjusted to be the same.
The supernatant samples were put through vertical electrophoresis isolation with 8% SDS-PAGE, and the isolated proteins were transferred onto a PVDF blotting membrane. After blotting was completed, the PVDF blotting membrane was removed and blocked for 1 hour under room temperature with a blocking buffer of TBST (Tris-buffered saline with Tween-20) with 5% non-fat milk. Then, the PVDF blotting membrane was placed into a 5% BSA and TBST solution containing the primary monoclonal antibodies Phospho-AMPKα (Thr172) (Cell Signaling) (1:1000) and AMPKα […] (Cell Signaling) (1:1000), respectively, and the primary immunoblotting reaction was performed under 4° C. Then, the PVDF blotting membrane was rinsed 3 times with TBST, and a TBST solution containing the secondary antibody goat anti-rabbit IgG (Perkin Elmer) (1:10000) was added to perform the secondary reaction for one hour under room temperature. Finally, the membrane was rinsed 3 times with TBST before ECL (enhanced chemiluminescence) was added to present color.

Br.CN1CCc2ccc(O)c3c2C1Cc1ccc(O)cc1-3 (stereo not shown) [1,10-dihydroxyaporphine hydrobromide]
AMPK phosphorylation, times of that in the control cells (3 μM, 5 minutes): 1.33 times | AMPK phosphorylation, times of that in the control cells (3 μM, 15 minutes): 1.21 times | AMPK phosphorylation, times of that in the control cells (10 μM, 5 minutes): 1.23 times | AMPK phosphorylation, times of that in the control cells (10 μM, 15 minutes): 1.65 times
